Results taken from PMC9051980 (Saudi Pharmaceutical Journal : SPJ, 2022).

Key:
Nasal perfusion method = format: in vivo, C57 mouse; conditions: at 60 min; 20 mL artificial nasal solution, 1 mg/mL, total dose 20 mg
[1] = Plasma pharmacokinetic evaluation; format: in vivo, C57BL/6N mice; conditions: both, C57BL/6N, mouse, po, 0.4 mg/mouse
[2] = In-vivo tissue distribution evaluation; conditions: both, C57BL/6N, mouse, po, 0.4 mg/mouse
In-vitro drug release = format: physicochemical; conditions: 34 °C, 200 rpm, artificial nasal fluid
[3] = test system: amygdala dopamine transporter (DAT); experiment: Immunohistochemistry of amygdala DAT; format: in vivo, C57 mice; conditions: Day 19, compared with Healthy group
plasma CORT = experiment: Plasma CORT level; format: in vivo, C57 mice; conditions: Day 19, compared with Healthy group
PTSD mice [4] = experiment: Freezing response test in fear-conditioning box; format: in vivo, C57 mice
PTSD mice [5] = experiment: Open field test; format: in vivo, C57 mice
[6] = test system: cilia of the maxillary mucosa of toads; experiment: Mucosal irritation; set-up: species or system toad
[7] = Day 17, five days after drug withdrawal, compared with Healthy group
[8] = Day 17, five days after drug withdrawal, compared with Model group
[9] = Day 12, compared with Model group

With `NC(=O)C[S@@+]([O-])C(c1ccccc1)c1ccccc1` [Armodafinil] the “Mucosal absorptive amount of armodafinil” value (Nasal perfusion method) was 2.50 mg, the AUC(0-t) [1] was 9900 ± 5500 ng·h/mL and the Cmax [1] was 3600 ± 2250 ng/mL. It also gave a Tmax [1] of 15 min, an AUC(0-t) ([2]; brain) of 1090 ng·h/mL and a Cmax ([2]; brain) of 259 ± 96 ng/mL. It also gave a Tmax ([2]; brain) of 30 min, an AUC(0-t) ([2]; liver) of 2380 ng·h/mL and a Cmax ([2]; liver) of 1150 ± 199 ng/mL. For the same compound, the Tmax ([2]; liver) was 30 min, the “Time at which the release was complete” value (In-vitro drug release) was 2 h and the “Released armodafinil percentage when release was complete” value (In-vitro drug release; 20 mg/mL armodafinil) was 18.12 ± 1.03%.
In the case of `CN[C@H]1CC[C@@H](c2ccc(Cl)c(Cl)c2)c2ccccc21` [Sertraline], the “DAT expression in amygdala (IOD)” value [3] is reported as “significantly increased”, the “Plasma CORT level” value (plasma CORT) is reported as “decreased” and the Freezing time (PTSD mice [4]; Day 11, compared with Healthy group) is reported as “longer freezing time”. The Total active distances (PTSD mice [4]; Day 11, fear-conditioning box, compared with Healthy group) was “shorter total active distances”, the Total active distances (PTSD mice [4]; Day 11, fear-conditioning box, compared with Model group) was “longer total active distances” and the Freezing time (PTSD mice [4]; [7]) was “longer freezing time”. The Total active distances (PTSD mice [4]; [7]) was “shorter total active distances”, the Freezing time (PTSD mice [4]; [8]) was “shorter freezing time” and the Total active distances (PTSD mice [4]; [8]) was “longer total active distances”. The “Open field test indicators” value (PTSD mice [5]; Day 12, compared with Healthy group) was “fewer crossing times”, the “Active distances in the center of thigmotaxis area” value (PTSD mice [5]; [9]) was “more active distances in the center of thigmotaxis area” and the “Crossings in the center of thigmotaxis area” value (PTSD mice [5]; [9]) was “more crossings in the center of thigmotaxis area”. For the same compound, the Total active distances (PTSD mice [5]; Day 12, open field, compared with Model group) was “more total active distances”, the “Crossings and active distances in the center of thigmotaxis area” value (PTSD mice [5]; Day 18, after drug withdrawal, compared with Healthy group) was “fewer crossings and active distances in the center of thigmotaxis area” and the “Crossing of the center of thigmotaxis area” value (PTSD mice [5]; Day 18, after drug withdrawal, compared with Model group) was “more frequently”. For the same compound, the Total active distances (PTSD mice [5]; Day 18, open field, after drug withdrawal, compared with Healthy group) was “fewer total active distances” and the Total active distances (PTSD mice [5]; Day 18, open field, after drug withdrawal, compared with Model group) was “increased”.
In the case of `C[C@H](CCC(=O)O)[C@H]1CC[C@H]2[C@@H]3CC[C@@H]4C[C@H](O)CC[C@]4(C)[C@H]3C[C@H](O)[C@]12C` [Sodium Deoxycholate], the “PVD (persistent vibration duration of cilia)” value ([6]; 100 μL on toad upper-jaw mucosa, armodafinil 20 mg/mL, sodium deoxycholate 1%) is reported as 136.67 ± 26.95 min, the “PPV (percentage of persistent vibration)” value ([6]; PVD compared with that of the saline group) is reported as 20.69% and the “Ciliary structure / extent of damage of cilia under microscope” value ([6]; maxillary mucosa of toads) is reported as “obviously prostrate or even exfoliated”.
